These results are taken from article PMC8245078, “Development of novel benzofuran-isatin conjugates as potential antiproliferative agents with apoptosis inducing mechanism in Colon cancer” (Journal of Enzyme Inhibition and Medicinal Chemistry, 2021).

In test [1] the test system is HT-29 colorectal cancer cell line. Description: MTT cell viability assay. The class given is cell-based, human. The settings on record: for inhibition of HT-29 cancer cells viability: 10 µM, 24 h, MTT. How it is done:
(§1) In the present investigation a new set of benzofuran–isatin hybrids (5a–e and 7a–i) was synthesised to be evaluated for their potential anticancer activity towards two human colorectal cancer cell lines, SW-620 and HT-29. […] Both, SW-620 and HT-29 cells were treated with 10 µM of each compound for 24 h and the percent cell viability was calculated using MTT assay.
(§2) For this reason, compounds 5a and 5d were pursued for further studies. Starting with determination of IC50s and cytotoxic selectivity studies. Serial concentrations of compounds 5a and 5d were used to examine their impact on cell viability using MTT protocol. Results of concentration vs percent viability were charted, and the IC50 was calculated for SW-620 and HT-29 cell lines using Graph Pad prism 8 (Figure 4). […]
(§3) [(Ti-Tz)/Tz] x 100 for concentrations for which Ti<Tz […]
(§4) SW620 and HT29 colorectal cancer cell lines and HFF-1 fibroblast (ATCC, Rockville, USA) were used. HT29 cells were cultured and maintained in Dulbecco’s Modified Eagles Medium (DMEM) (GIBCO, by Thermo Fischer Scientific, NY, USA) supplemented with 10% fetal bovine serum (FBS), 100 units/mL penicillin, and 100 μg streptomycin. SW620 and HFF-1 cells were cultured in Roswell Park Memorial Institute medium (RPMI-1640) (GIBCO, by Thermo scientific, NY, USA) supplemented with 10% FBS and 1% penicillin and streptomycin (Napolitano et al., 2015). All cultures were incubated at 37 °C and humidified atmosphere of 5% […]
(§5) 2.3. Cell Viability Assay
(§6) The cytotoxicity effect of compounds on the colorectal cancer cell lines, SW620 and HT29 in addition to the normal human fibroblasts was measured by MTT (3-(4, 5-dimethylthiazol-2-yl)-2,5-diphenyltetrazolium bromide) (Sigma-Aldrich, St. Louis, MO, USA) as previously described. Briefly, cells were seeded in 96 well culture plates at 5000/well for HT29 and 10,000/well for SW620 for 24 h. Cells were then incubated with different compounds from WAG1 series (1-15) 24h at 37 °C and humidified 5% CO2 incubator. Freshly prepared 10 μl of 3-(4,5-dimethylthiazol-2-yl)-2,5-diphenyltetrazolium bromide (MTT 5 mM) solution were added to the cells and further incubated for 2 h. Thereafter, 100 μl of dimethyl sulfoxide (DMSO) were added in each well and the crystals were dissolved through careful pipetting. […]
VA, USA). The experiments were performed in triplicate for each condition. […]
(§7) The total protein concentration was evaluated by the colorimetric
(§8) Bradford protein assay (BIO-RAD inc, CA, USA) at 595 nm absorbance. Lysates were loaded in […]
Background: Tetrazolium dyes change colour on reduction, which living cells bring about.

The test system of test [2] is SW-620 colorectal cancer cell line. Description: MTT cell viability assay. The class given is cell-based, human. Conditions: Homo sapiens, SW-620, SW-620, MTT. How it is done: as §1, §2, §3, §4, §5
as §6, with “pipetting. In certain experiment, cells were treated different concentration of 5FU for 72 h. The absorbance of the product was measured at 540 nm using a Synergy™ 2 multi-mode microplate reader (Biotech, VA, USA). The experiments were performed in triplicate for each condition.” for “pipetting.”
as §7, §8

Turning to `C=CCN1C(=O)/C(=N\NC(=O)c2oc3ccccc3c2C)c2ccccc21` [Compound 7c], the “inhibition of HT-29 cancer cells viability” value (“inhibition” for short) in test [1] is on record as > 50%.

For `Cc1c(C(=O)N/N=C2\C(=O)N(Cc3ccc(F)cc3)c3ccccc32)oc2ccccc12` [Compound 7e], the “inhibition” value in test [1] was > 50%.

For `Cc1c(C(=O)N/N=C2\C(=O)N(Cc3ccccc3)c3ccc(Br)cc32)oc2ccccc12` [Compound 7h], the “inhibition” value in test [1] was > 50%.

Consider `Cc1c(C(=O)N/N=C2\C(=O)N(Cc3ccc(F)cc3)c3ccc(Br)cc32)oc2ccccc12` [Compound 7i], for which, in test [1], the “inhibition” value is recorded as > 50%.

Turning to `CCc1c2c(nc3ccc(OC(=O)N4CCC(N5CCCCC5)CC4)cc13)-c1cc3c(c(=O)n1C2)COC(=O)[C@]3(O)CC` [Irinotecan, reference compound], the IC50 is 1 µM in test [2] and 6.18 µM in test [1] (Homo sapiens, HT-29, HT-29, MTT).

In general, IC50 refers to the concentration at which inhibition is half-maximal.
